Reference: patent publication EP0300812A2, “Platinum triamine antitumor agents containing saturated amines” (ENGELHARD CORPORATION, priority 1987, dated 1989)
Where “and” joins values, the source holds several entries; their conditions need not be identical. Identical values can stand only once.

Columns and labels:
L1210 Leukemia = assay: L1210 leukemia antitumor screening; type: in vivo, Female CDF₁ mice; details: for %ILS: ILS ≧ 25% represents activity; for Surv.: survivors per 6 mice at three times the MST of controls
Method: (§1) Each compound was evaluated in at least one of these screens.
L1210 screening was conducted according to a published method. See Rose, W.C.; Schurig, J.F.; Huftalen, J.B.; Bradner, W.T. Cancer Treat. Rep. […] Female CDF₁ mice (16 - 22 g) were implanted with 1 x 10⁶ tumor cells ip on day zero. Compounds were administered in 0.5 mL water ip on day one. Groups of 6 mice were used for each dose. A control group received only tumor and 0.5 mL water. A positive control group received tumor and 8 mg/kg cisplatin in 0.5 mL of 0.15 M NaCl. The test was terminated after three times the mean survival time (MST) of the control group, surviving mice were counted as dying on that day. Activity was determined based on the percent increase in MST of test mice over controls (%ILS). […] The tumor line was maintained through weekly transfer of 5 x 10⁴ cells in DBA/2 mice.

Sarcoma 180 ascites = Sarcoma 180 ascites antitumor screening; type: in vivo, Female CFW mice; details: for %ILS: ILS ≧ 50% indicates activity; for Surv.: survivors per 6 mice at twice the MST of controls
Method: as §1
Female CFW mice (18 - 25 g) were implanted with 2 x 10⁶ cells ip on day zero. Compounds were administered in 0.5 mL water ip on day one. Groups of 6 mice were used for each test dose as well as controls as defined above. The test was run for twice the MST of the control group, with survivors counted as dying on that day. An ILS of ≧ 50% indicates activity. The tumor line was maintained through weekly transfer of 4 x 10⁶ cells in CFW mice.

[1] = S180a, dose 10 mg/kg ip in water on day one
[2] = S180a, dose 20 mg/kg ip in water on day one
[3] = S180a, dose 40 mg/kg ip in water on day one
[4] = S180a, dose 80 mg/kg ip in water on day one
[5] = S180a, dose 160 mg/kg ip in water on day one
[6] = S180a, dose 320 mg/kg ip in water on day one

CC1CCNCC1.N.N.O=[N+]([O-])[O-].[Cl-].[Pt+2] [cis-[Pt(NH3)2(4-methylpiperidine)Cl]NO3, cis-[Pt(NH₃)₂(4-methylpiperidine)Cl]NO₃]
%ILS (L1210 Leukemia; L1210, dose 10 mg/kg ip in water on day one): 24%
Surv. (L1210 Leukemia; L1210, dose 10 mg/kg ip): 0/6
%ILS (L1210 Leukemia; L1210, dose 20 mg/kg ip in water on day one): 17%
Surv. (L1210 Leukemia; L1210, dose 20 mg/kg ip): 0/6
%ILS (L1210 Leukemia; L1210, dose 40 mg/kg ip in water on day one): 60%
Surv. (L1210 Leukemia; L1210, dose 40 mg/kg ip): 0/6
%ILS (L1210 Leukemia; L1210, dose 80 mg/kg ip in water on day one): 57%
Surv. (L1210 Leukemia; L1210, dose 80 mg/kg ip): 0/6
%ILS (L1210 Leukemia; L1210, dose 160 mg/kg ip in water on day one): -28%
Surv. (L1210 Leukemia; L1210, dose 160 mg/kg ip): 0/6
%ILS (L1210 Leukemia; L1210, dose 320 mg/kg ip in water on day one): -68%
Surv. (L1210 Leukemia; L1210, dose 320 mg/kg ip): 0/6
%ILS (Sarcoma 180 ascites; [1]): 4%
Surv. (Sarcoma 180 ascites; S180a, dose 10 mg/kg ip): 0/6
%ILS (Sarcoma 180 ascites; [2]): 13%
Surv. (Sarcoma 180 ascites; S180a, dose 20 mg/kg ip): 0/6
%ILS (Sarcoma 180 ascites; [3]): 18%
Surv. (Sarcoma 180 ascites; S180a, dose 40 mg/kg ip): 0/6
%ILS (Sarcoma 180 ascites; [4]): 76%
Surv. (Sarcoma 180 ascites; S180a, dose 80 mg/kg ip): 1/6
%ILS (Sarcoma 180 ascites; [5]): 4%
Surv. (Sarcoma 180 ascites; S180a, dose 160 mg/kg ip): 1/6
%ILS (Sarcoma 180 ascites; [6]): -80%
Surv. (Sarcoma 180 ascites; S180a, dose 320 mg/kg ip): 0/6

CCCCCCCC[NH2+][Pt-2]([NH3+])([NH3+])[Cl].O=[N+]([O-])[O-] [cis-[Pt(NH3)2(octylamine)Cl]NO3, cis-[Pt(NH₃)₂(octylamine)Cl]NO₃]
%ILS (Sarcoma 180 ascites; [1]): 16%
Surv. (Sarcoma 180 ascites; S180a, dose 10 mg/kg ip): 0/6
%ILS (Sarcoma 180 ascites; [2]): 25%
Surv. (Sarcoma 180 ascites; S180a, dose 20 mg/kg ip): 0/6
%ILS (Sarcoma 180 ascites; [3]): 22%
Surv. (Sarcoma 180 ascites; S180a, dose 40 mg/kg ip): 0/6
%ILS (Sarcoma 180 ascites; [4]): -78%
Surv. (Sarcoma 180 ascites; S180a, dose 80 mg/kg ip): 0/6
%ILS (Sarcoma 180 ascites; [5]): -78%
Surv. (Sarcoma 180 ascites; S180a, dose 160 mg/kg ip): 0/6
%ILS (Sarcoma 180 ascites; [6]): -95%
Surv. (Sarcoma 180 ascites; S180a, dose 320 mg/kg ip): 0/6
activity in the S-180 ascites screen (Sarcoma 180 ascites; statement in words): substantially no activity

O=[N+]([O-])[O-].[NH3+][Pt-2]([NH3+])([Cl])[NH2+]CC1CCCCC1 (stereo not drawn) [cis-[Pt(NH₃)₂(cyclohexanemethylamine)Cl]NO₃]
%ILS (Sarcoma 180 ascites; [1]): 15%
Surv. (Sarcoma 180 ascites; S180a, dose 10 mg/kg ip): 0/6
%ILS (Sarcoma 180 ascites; [2]): 22%
Surv. (Sarcoma 180 ascites; S180a, dose 20 mg/kg ip): 0/6
%ILS (Sarcoma 180 ascites; [3]): 19%
Surv. (Sarcoma 180 ascites; S180a, dose 40 mg/kg ip): 1/6
%ILS (Sarcoma 180 ascites; [4]): 61%
Surv. (Sarcoma 180 ascites; S180a, dose 80 mg/kg ip): 0/6
%ILS (Sarcoma 180 ascites; [5]): -78%
Surv. (Sarcoma 180 ascites; S180a, dose 160 mg/kg ip): 0/6
%ILS (Sarcoma 180 ascites; [6]): -94%
Surv. (Sarcoma 180 ascites; S180a, dose 320 mg/kg ip): 0/6

cis-[Pt(NH₃)₂Cl₂] [Positive Control, reference compound]
Positive Control %ILS (L1210 Leukemia; L1210, positive control 8 mg/kg cisplatin in 0.15 M NaCl ip): 149%
Positive Control Surv. (L1210 Leukemia; L1210, positive control 8 mg/kg cisplatin in 0.15 M NaCl ip, survivors per 6 mice): 2/6
Positive Control %ILS (Sarcoma 180 ascites; S180a, positive control 8 mg/kg cisplatin in 0.15 M NaCl ip): 65% and 80%
Positive Control Surv. (Sarcoma 180 ascites; S180a, positive control 8 mg/kg cisplatin in 0.15 M NaCl ip, survivors per 6 mice): 1/6 and 3/6
